Measurements: US6950757B2, “Screening methods for identifying ligands” (Emerald BioStructures, Inc., priority 2001, dated 2005)

Experiments:
Format in all cases: binding
[1] = target: T1, topo70-DNA covalent complex (Form 7 apo-crystals) (Homo sapiens, UniProt P11387); assay: Crystal cracking of Form 7 crystals (crystal-cracking assay); details: 16° C., approximately 3 hours
T1 construct: human topoisomerase I construct of residues Lys175 to Phe765; made in house; host or cells: baculovirus-insect cell (SF9)
T1 sequence (P11387 175-765): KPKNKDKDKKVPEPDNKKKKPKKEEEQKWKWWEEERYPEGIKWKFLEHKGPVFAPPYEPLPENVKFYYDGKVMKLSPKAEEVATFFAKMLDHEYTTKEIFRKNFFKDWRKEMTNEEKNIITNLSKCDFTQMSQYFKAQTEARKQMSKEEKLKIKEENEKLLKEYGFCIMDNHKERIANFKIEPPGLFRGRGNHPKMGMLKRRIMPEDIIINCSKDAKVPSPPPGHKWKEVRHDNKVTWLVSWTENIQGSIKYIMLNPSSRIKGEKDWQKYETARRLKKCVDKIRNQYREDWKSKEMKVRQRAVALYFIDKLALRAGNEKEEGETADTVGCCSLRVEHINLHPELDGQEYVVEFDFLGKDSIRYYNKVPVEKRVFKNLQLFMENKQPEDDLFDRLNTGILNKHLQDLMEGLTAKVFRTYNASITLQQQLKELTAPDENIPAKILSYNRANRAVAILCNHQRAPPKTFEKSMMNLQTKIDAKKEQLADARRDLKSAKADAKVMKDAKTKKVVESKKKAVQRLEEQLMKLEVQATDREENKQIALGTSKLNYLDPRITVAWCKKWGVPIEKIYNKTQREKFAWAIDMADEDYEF
Text: Cracking of the crystal after exposure to the potential ligand(s) indicates binding between at least one potential ligand and the macromolecule. This assay is referred to herein as the “crystal-cracking” assay.
The crystal cracking assay of the invention involves the development of optimized crystal growth conditions that depend on the absence of the ligand to produce a supply of macromolecule crystals, referred to herein as apo-crystals, then soaking the apo-crystals in a solution containing one or more potential ligands. If a ligand actually binds to the macromolecule, it initiates a conformational change in the crystal resulting in an observable cracking of the crystal.
Several rounds of similar optimization screening experiments eventually led to the identification of a definitive crystallization condition that produces crystals of the topo70-DNA covalent complex only in the absence of Topotecan (designate Form 7). The Form 7 crystals were grown at 16° C. under optimized conditions by vapor diffusion equilibration against a 500 microliter reservoir solution of 10% PEG 8000, 100 mM Tris-HCl pH 8.0, 100 mM Na/K phosphate pH 6.2, 100 mM KCl, and 10 mM DTT. The sitting drop crystallizations were prepared in drop chambers by mixing 2 microliters of reservoir solution with 2 microliters of 0.1 mM duplex DNA substrate in 6 mM NaCl, and 2 microliters 4 mg/ml topo70 in 10 mM Tris-HCl pH 7.5, 1 mM EDTA, and 1 mM DTT.
In order to test the effects of Topotecan and other topo I poisons on the integrity of Form 7 crystals, crystallization drops containing Form 7 crystals were subjected to the following treatments:
1. Injection of 3 microliters of a buffer solution containing 100 mM MES pH 6.3, and 100 mM Na/K phosphate pH 6.2 (buffer only control).
2. Injection of 3 microliters of 100 mM MES pH 6.3, 100 mM Na/K phosphate pH 6.2, and 0.32 mM Topotecan.
3. Injection of 3 microliters of 100 mM MES pH 6.3, 100 mM Na/K phosphate pH 6.2, 13% v/v DMSO, and 0.64 mM camptothecin.
4. […]

[2] = target: T2, topo70-DNA covalent complex (Homo sapiens, UniProt P11387); assay: Crystal growth assay (crystal growth dependence on ligand), T80P CBS-cross solutions; details: 16° C.
T2 construct: human topoisomerase I construct of residues Lys175 to Phe765; made in house; host or cells: baculovirus-insect cell (SF9)
T2 sequence (P11387 175-765): T1 sequence (P11387 175-765)
Experimental: The chemical components of each crystallization formulation were classified as being either a crystallant, buffer, or salt. The various crystallants were as follows:
CBS-cross crystallization screening formulations were prepared with all possible combinations of crystallants, buffers and salts.
In one set of crystallization experiments, the T80P crystallization screen was used in a Combinatorial Clover Plate developed by Emerald BioStructures, Inc. [Kim et al.], which allows for the rapid set up of multiple crystallizations in a common vapor diffusive environment.
The 24 reservoir chambers of the Combinatorial Clover Plate were filled with 1.0 milliliter of each of the 24 different T80P formulations. Once the T80P formulations had been individually placed into the reservoir chambers, 2 microliters of each individual crystallization screening formulation was placed into each of the four the sitting drop chambers that are connected to the common reservoir by dedicated vapor diffusion channels. This was followed by the addition of 1 microliter of duplex suicide oligonucleotide substrate (0.05 mM duplex, 6 mM NaCl) into the drop chamber.
The duplex was mixed with the crystallization screening solution by repeated pipetting. This was followed by the addition 0.1 microliter of 10 mM Topotecan to the upper two drop chambers of each crystallization clover. […]

[3] = target: T2, topo70-DNA covalent complex; assay: Crystallization trials with VII-2 solutions in the absence or presence of Topotecan; details: condition VII-2 #3; 1 microliter of 1 mM ligand in water vs water only; 16° C., several days
Experimental: The four different VII-2 formulations each contained one or more of the chemical components found in the lead crystallization conditions, plus additional components such as 10 mM DTT. The four VII-2 crystallization conditions were as follows:
A Cryschem tray was used to screen each of the four VII-2 crystallization solutions for their ability to promote crystallization of topo70-DNA complexes in the absence or presence of Topotecan, an analogue of camptothecin. The crystallization experiments were set up by first placing 500 microliters of the VII-2 screening solutions in duplicate individual reservoir chambers. Next, 3 microliters of each reservoir solution was placed into the drop chambers. The drop chamber solutions were then mixed by pipetting with 1.5 microliters of 0.05 mM suicide duplex oligonuceotide substrate in 6 mM NaCl. One microliter of 1 mM Topotecan in pure water or 1 microliter of pure water only was added to each of the duplicate drop chambers. Then 2 microliters of topo70 at 3 mg/ml in 10 mM Tris-HCl pH 7.5, 1 mM EDTA, and 1 mM DTT was added to each of the drop chambers. The crystallization tray was sealed with crystal clear sealing tape (marketed by Manco, Inc. Avon, Ohio), and incubated at 16° C.

[4] = injection of 3 microliters of 0.64 mM ligand in 100 mM MES pH 6.3, 100 mM Na/K phosphate pH 6.2, 13% v/v DMSO

SMILES: CC[C@@]1(O)C(=O)OCc2c1cc1n(c2=O)Cc2cc3cc4c(cc3nc2-1)OCO4 [10,11 MDO-camptothecin, 10,11 MDO camptothecin]
- effect on integrity of Form 7 crystals (crystal cracking) [1, 4]: had dissolved leaving only a trace pile of crystal bits

SMILES: O=C(O)CCCn1c2c(c3ccccc3c1=O)C(=O)c1ccccc1-2 [MJ-II-38]
- ligand-dependent crystal growth of ternary complex crystals ([2]; T80P #10, 0.5 microliter of 1 mM AG260 in 100% DMSO or 0.3 microliter of 1 mM MJ-II-38 in 90% v/v DMSO, several days): plate like crystals grew

SMILES: CC[C@@]1(O)C(=O)OCc2c1cc1n(c2=O)Cc2cc3c(CN(C)C)c(O)ccc3nc2-1 [Topotecan]
- effect on integrity of Form 7 crystals (crystal cracking) ([1]; injection of 3 microliters of 0.32 mM ligand in 100 mM MES pH 6.3, 100 mM Na/K phosphate pH 6.2): showed visible signs of micro cracks throughout the crystals
- ligand-dependent crystal growth (Form 9 crystals) ([2]; T80P #9 and T80P #10, 0.1 microliter of 10 mM ligand, day 28, no crystals when ligand absent): produced crystals of distinct block morphology when Topotecan was present
- growth of putative topo70-DNA covalent complex crystals (Form 7) with ligand present vs absent [3]: grow in condition VII-2 #3 only when Topotecan was absent

SMILES: CC[C@@]1(O)C(=O)OCc2c1cc1n(c2=O)Cc2cc3ccccc3nc2-1 [camptothecin]
- effect on integrity of Form 7 crystals (crystal cracking) [1, 4]: showed visible signs of micro cracks throughout the crystals
